From patent US20240350467A1, “[6R]-MTHF IN B6 ENHANCED 5-FU BASED CHEMOTHERAPY OF PANCREATIC CANCER” (Isofol Medical AB, priority 2023, published 2024)
Where two headings read alike, the source gives them in different places. One block for each molecule: values may come before it.

Legend:
[1] = [6R]-MTHF levels after arfolitixorin versus comparable leucovorin treatment; type: in vivo
Description: Leucovorin and l-leucovorin, both currently approved for treatment of gastrointestinal and other cancers, need to be metabolically activated to [6R]-MTHF to potentiate the effect of 5-FU. This dependency on cellular activation provides a hurdle for reaching sufficient levels of the active [6R]-MTHF. […] Secondly, the enzymatic activation is genetically regulated^16,18, and is therefore associated with variability between individuals and conditions. Arfolitoxirin is believed to be efficacious in a larger proportion of patients with less inter- and intra-individual variability. These differences may potentially turn out to be of significant importance for increased clinical efficacy in 5-FU based cancer treatment.

[2] = Stability of [6R]-5,10-MTHF forms; type: physicochemical
Description: Arfolitixorin (former Modufolin®) is a folate-based biomodulator developed by applicant to improve the outcome of a range of antimetabolite treatments used within oncology. One of the therapeutic areas of specific interest included in the development program of arfolitixorin is as biomodulator of 5-fluorouracil (5-FU) activity in standard treatment regime for advanced, metastatic CRC, such as Stage IV. A stable lyophilizate formulation of the naturally occurring diastereoisomeric folate [6R]-5,10-MTHF has successfully been made from the drug substance arfolitixorin hemisulfate. […] As mentioned in the background section of the present application, [6R]-5,10-methylenetetrahydrofolate, abbreviated herein as [6R]-5,10-MTHF, needs to be metabolically formed when using the widely used folate-based drugs leucovorin and levoleucovorin.

[3] = cited from earlier work
[4] = cited from earlier work; remark: listed apart in the source
[5] = in vivo; cited from earlier work
[6] = test system: metastatic pancreatic cancer; conditions: PRODIGE 4, 342 patients enrolled; cited from earlier work
[7] = test system: metastatic pancreatic cancer; conditions: MPACT study; cited from earlier work
[8] = test system: metastatic pancreatic cancer; conditions: standard first-line treatment until 2011; cited from earlier work
[9] = in vitro; cited from earlier work

[6R]-MTHF levels relative to comparable treatment with leucovorin [1]: 3-4 times | stability [2]: very unstable
Molecule: Nc1nc2c(c(=O)[nH]1)N1CN(c3ccc(C(=O)N[C@@H](CCC(=O)O)C(=O)O)cc3)C[C@H]1CN2 [Arfolitixorin, [6R]-5,10-methylenetetrahydrofolate]

Molecule: Cc1ncc(CO)c(CO)c1O.Cl [Pyridoxine hydrochloride]
solubility in water [3]: One gram dissolves in 5 mL of water | stability in air ([4]; air): stable in air | stability to sunlight ([4]; sunlight): slowly affected by sunlight

stability [2]: unexpectedly stable salt
Molecule: Nc1nc2c(c(=O)[nH]1)N1CN(c3ccc(C(=O)N[C@@H](CCC(=O)O)C(=O)O)cc3)C[C@H]1CN2.Nc1nc2c(c(=O)[nH]1)N1CN(c3ccc(C(=O)N[C@@H](CCC(=O)O)C(=O)O)cc3)C[C@H]1CN2.O=S(=O)(O)O [arfolitixorin hemisulfate]

Molecule: Nc1nc2c(c(=O)[nH]1)N(C=O)[C@H](CNc1ccc(C(=O)N[C@@H](CCC(=O)O)C(=O)O)cc1)CN2 [d-LV]
excretion by the kidneys [5]: slowly excreted

Molecule: Nc1ccn([C@@H]2O[C@H](CO)[C@@H](O)C2(F)F)c(=O)n1 [gemcitabine]
median overall survival (mOS) [6]: 6.8 months | objective response rate (ORR) [6]: 9.4% | ORR [7]: 7% | mOS [7]: 6.7 months | median overall survival (mOS) [8]: about 6 months

Molecule: Nc1nc(=O)c2c([nH]1)NC[C@H](CNc1ccc(C(=O)N[C@@H](CCC(=O)O)C(=O)O)cc1)N2C=O [l-LV, [6S]-5-formyl-THF]
conversion to methyl-tetrahydrofolate form [9]: rapidly converted

Molecule: FOLFIRINOX
median overall survival (mOS) [6]: 11.1 months | objective response rate (ORR) [6]: 31.6%
